Columns and labels:
Assay type in all cases: cell-based, human
[1] = system: PGC1α, PRDM16, PPARα and DIO2; assay: Real-time quantitative PCR of thermogenesis genes after 8-Br-cAMP; settings: after 48 hours, D20 adipocytes, vs basal
Method: Total RNAs were extracted using the NucleoSpin RNA kit (Macherey Nagel) according to the manufacturer's recommendations. The concentration of total RNAs extracted and their contamination by solvents or salts were evaluated by microspectrophotometry (Nanodrop). Reverse transcription was carried out using the High Capacity cDNA Reverse Transcription Kit (Applied Biosystems). Quantitative PCR was then carried out by adding 2 μL of cDNA diluted 10 times, 10 μL of SYBR Green I PCR mix (Roche Diagnostics, including DNA polymerase, dNTPs, 3 mM MgCl2 and SYBR Green fluorescent probe), 0.2 μM sense primer and 0.2 μM antisense primer (Table 2 below). The reference gene GAPDH was used to normalize the expression of the genes of interest.
(§1) The adipocytes were optionally treated for 6 hours with 10^−5 M isoproterenol (Sigma), then the protein samples were collected. For a longer stimulation, the adipocytes were treated with a non-metabolizable cAMP analogue, 8-Br-cAMP (Sigma), for 48 hours.

beige adipocytes = assay: MitoTracker staining of adipocytes after 8-Br-cAMP; settings: after 48 hours, vs basal
Method: as §1
Living cells at D20 of differentiation were incubated with 1 μM MitoTracker® Red CMXRos (Life Technologies®) for 45 minutes in the dark at 37° C., 5% CO2. After rinsing twice with PBS, the cells were fixed with 3% PFA for 15 minutes at room temperature. The preparation was then incubated for 15 minutes with 1 ng/mL BODIPY 493/503 (Molecular Probes®, D-3922) then rinsed 3 times with PBS before being incubated for 5 minutes in DAPI (4′-6-diamidino-2-phenylindole, VWR). After applying the mounting medium (Fluoromount-G™, Southern Biotech), the cells were observed using a confocal microscope (Leica).

[2] = system: insulin receptor (IR) and AKT/PKB; assay: Short insulin treatment of adipocytes derived from iPS cells, phospho-specific Western blot; settings: adipocytes after 20 days of differentiation
Method: The adipocytes were lysed in a suitable volume of lysis buffer (50 mM Tris pH 7.4, 0.27 M sucrose, 1 mM Na-orthovanadate pH 10, 1 mM EDTA, 1 mM EGTA, 10 mM (3-glycerophosphate, 50 mM NaF, 5 mM pyrophosphate, 1% (w/v) Triton X-100, 0.1% (w/v) 2-β-mercaptoethanol, and protease inhibitors). The total lysates were centrifuged (15,000 g, 4° C. for 10 minutes) then stored at −80° C. until use. The protein concentrations were determined using the Bradford method with bovine albumin as the standard. The samples underwent SDS/PAGE migration on polyacrylamide gels and then were transferred onto nitrocellulose membranes (Amersham Biosciences), blocked for 2 hours at room temperature in TBS-T buffer (50 mM Tris-HCl pH 7.6, 150 mM NaCl, 0.1% (v/v) Tween-20) supplemented with 5% (w/v) skimmed milk or BSA, and incubated with the various antibodies specific to the protein of interest (Table 1 above).
The nitrocellulose membranes were rinsed 3×5 minutes in TBS-T buffer before being incubated with the secondary antibody coupled to peroxidase. The signals were detected using chemiluminescence (Pierce-Perbio Biotechnologies) by exposure on autoradiographic film (Kodak).

Row | Compound | expression of genes involved in thermogenesis (PGC1α, PRDM16, PPARα, DIO2) [1] | number of mitochondria in the beige adipocytes (beige adipocytes) | phosphorylation of the insulin receptor (IR) subunit and its target AKT [2]
1 | Nc1ncnc2c1nc(Br)n2[C@@H]1O[C@@H]2COP(=O)(O)O[C@H]2[C@H]1O [8-Br-cAMP] | increase | increase in the number of mitochondria | 
2 | insulin |  |  | strong phosphorylation
